Test results: US20140350081A1, “INSECT G-COUPLED RECEPTORS USEFUL AS TARGETS FOR INSECTICIDES AND COMPOUNDS AND REAGENTS IDENTIFIED USING THE SAME” (priority 2011, published 2014)
Structures can show the parent of a compound that is named as a salt. Where two headings read alike, the source gives them in different places.

Tests used:
[1] = molecular target: Isdop2 (Ixodes scapularis, UniProt A0ACM8DGL0); test: cell-based; conditions: for inhibition at 10 µM: read-out: % Inhibition (of response to dopamine), Isdop2 screen
[2] = molecular target: AaDOP2 (Aedes aegypti, UniProt H6D5H2); test: LOPAC1280 antagonist screen in HEK-CRELuc-Aadop2 cells; assay type: cell-based; conditions: for % inhibition of DA activity (Aedes cell-based assay screen): LOPAC1280 screen hits
[3] = 10 μM compound, footnote 3 mM dopamine
[4] = 10 μM compound, 300 nM dopamine, quadruplicate

Sequence of AaDOP2 (H6D5H2 entry or part of it): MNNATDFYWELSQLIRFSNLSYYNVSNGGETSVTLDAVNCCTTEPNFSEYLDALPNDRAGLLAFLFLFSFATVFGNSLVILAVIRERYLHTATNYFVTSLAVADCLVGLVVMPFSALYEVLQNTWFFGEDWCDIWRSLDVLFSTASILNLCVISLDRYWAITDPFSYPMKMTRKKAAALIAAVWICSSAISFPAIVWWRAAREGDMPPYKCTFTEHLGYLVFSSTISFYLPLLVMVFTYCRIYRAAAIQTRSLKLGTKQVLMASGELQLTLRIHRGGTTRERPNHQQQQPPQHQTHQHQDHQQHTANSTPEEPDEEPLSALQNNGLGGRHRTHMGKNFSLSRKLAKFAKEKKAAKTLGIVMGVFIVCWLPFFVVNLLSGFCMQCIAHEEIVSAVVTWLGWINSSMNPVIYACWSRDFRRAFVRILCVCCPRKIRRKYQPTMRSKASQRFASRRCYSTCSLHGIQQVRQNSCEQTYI
Sequence of Isdop2 (A0ACM8DGL0 entry or part of it): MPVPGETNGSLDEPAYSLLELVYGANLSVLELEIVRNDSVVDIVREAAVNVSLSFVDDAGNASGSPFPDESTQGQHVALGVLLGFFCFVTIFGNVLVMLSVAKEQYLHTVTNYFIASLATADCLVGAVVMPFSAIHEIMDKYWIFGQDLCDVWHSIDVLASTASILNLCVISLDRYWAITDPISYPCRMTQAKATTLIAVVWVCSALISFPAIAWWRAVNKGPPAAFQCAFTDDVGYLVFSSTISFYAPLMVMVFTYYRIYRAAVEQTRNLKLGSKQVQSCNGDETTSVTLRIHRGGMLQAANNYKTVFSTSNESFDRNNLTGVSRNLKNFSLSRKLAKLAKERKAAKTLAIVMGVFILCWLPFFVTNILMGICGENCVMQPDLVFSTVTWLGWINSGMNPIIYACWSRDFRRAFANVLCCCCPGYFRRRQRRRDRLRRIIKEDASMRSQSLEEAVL

SMILES	inhibition at 10 µM [1] [%]	% of the SCH23390 effect [2] [%]	% inhibition of DA activity (Aedes cell-based assay screen) [2] [%]	% Inhibition (of response to dopamine), Isdop2 screen [1, 3] [%]	% of the SCH23390 effect [2, 4] [%]	% Inhibition (of response to dopamine), Isdop2 screen [1] [%]
CN(C)CCCN1c2ccccc2Sc2ccccc21 [Promazine, N,N-dimethyl-3-(10H-phenothiazin-10-yl)-propan-1-amine]	87	88	88			
CC[C@@]1(O)C(=O)OCc2c1cc1n(c2=O)Cc2cc3ccccc3nc2-1 [(S)-(+)-Camptothecin]				97	93	
CC(C)[C@H](CO)Nc1nc(Nc2cccc(Cl)c2)c2ncn(C(C)C)c2n1 [Purvalanol A]					93	84
O=C1Cc2c([nH]c3ccc(Br)cc23)-c2ccccc2N1 [Kenpaullone]	68				83	
O=C(Nc1ccc([N+](=O)[O-])cc1Cl)c1cc(Cl)ccc1O [Niclosamide]	100				95	
Cc1nc2sccn2c(=O)c1CCN1CCC(=C(c2ccc(F)cc2)c2ccc(F)cc2)CC1 [Ritanserin, 6-[2-[4-[bis(4-fluorophenyl)methylidene]piperidin-1-yl]ethyl]-7-methyl-[1,3]thiazolo[2,3-b]pyrimidin-5-one]	77		83		83	
Cc1nc2sccn2c(=O)c1CCN1CCC(=C(c2ccccc2)c2ccc(F)cc2)CC1 [Diacylglycerol kinase inhibitor I]					90	69
CN(C)CCCN1c2ccccc2Sc2ccc(C(F)(F)F)cc21 [Triflupromazine, N,N-dimethyl-3-[2-(trifluoromethyl)-10H-phenothiazin-10-yl]propan-1-amine]	83	88	88			
O=C1C(SCCO)=C(SCCO)C(=O)c2ccccc21 [NSC 95397]					83	93
CC(=O)[C@]1(O)Cc2c(O)c3c(c(O)c2[C@@H](O[C@H]2C[C@H](N)[C@H](O)[C@H](C)O2)C1)C(=O)c1ccccc1C3=O [Idarubicin]	97	83				
CCCCCCCCCCCCCC(=O)O[C@@H]1[C@@H](C)[C@@]2(O)[C@@H](C=C(CO)C[C@]3(O)C(=O)C(C)=C[C@@H]23)[C@@H]2C(C)(C)[C@]12OC(C)=O [Phorbol 12-myristate 13-acetate]		88				75
CCC(=O)c1ccc2c(c1)N(CCCN(C)C)c1ccccc1S2 [Propionylpromazine, 1-[10-[3-(dimethylamino)propyl]phenothiazin-2-yl]propan-1-one]	94		85		85	
O=C1c2c(O)ccc(O)c2C(=O)c2c(NCCNCCO)ccc(NCCNCCO)c21 [Mitoxantrone]					83	
CN1C2CCC1CC(OC(c1ccccc1)c1ccc(Cl)cc1)C2.Cl (stereo not drawn) [4′-Chloro-3-alpha-(diphenylmethoxy) tropane hydrochloride]				80	85	
CC(CN(C)C)CN1c2ccccc2CCc2ccccc21 (racemic) [Trimipramine, (±)-3-(10,11-dihydro-5H-dibenzo[b,f]azepin-5-yl)-N,N,2-trimethylpropan-1-]	86		87		87	
Oc1cc(O)cc(/C=C/c2ccc(O)c(O)c2)c1 [Piceatannol]	100				98	
CC[C@H]1CN2CCc3cc(OC)c(OC)cc3[C@@H]2C[C@@H]1C[C@H]1NCCc2cc(OC)c(OC)cc21 [Emetine dihydrochloride hydrate]	100	86				
CC1(C)CCC2=C(O1)c1ccccc1C(=O)C2=O [beta-Lapachone]					86	
Cc1nc2ccccn2c(=O)c1CCN1CCC(C(=O)c2ccc(F)cc2)CC1 [Pirenperone, 3-[2-[4-(p-fluorobenzoyl)piperidino]ethyl]-2-methyl-4h-pyrido[1,2-a]pyrimidin-4-one]	87		90		90	
CN1CCc2ccccc2Cc2[nH]c3ccccc3c2CC1 [LE 300, 7-Methyl-6,7,8,9,14,15-hexahydro-5H-benz[d]indolo[2,3-g]azecine]	100	99	99			
CN1CCN(CC/C=C2/c3ccccc3Sc3ccc(S(=O)(=O)N(C)C)cc32)CC1 [Thiothixene, (9Z)-N,N-dimethyl-9-[3-(4-methylpiperazin-1-yl)propylidene]-9H-thioxanthene-2-sulfonamide]	87	86	86			
